The source of these data is patent publication US9975853B2, “Tetrahydroisoquinolinone derivatives and their use in the inhibition of the HSP70 protein” (Julius-Maximilians-Universitaet Wuerzburg, priority 2014, dated 2018).

For one data set, the system named is INA-6. Put plainly: Cell viability assay (annexin V-FITC/propidium iodide, flow cytometry) in INA-6 multiple myeloma cells. Type of data set: cell-based, human. The following applies: for pEC50: INA-6 multiple myeloma cells, 72 hours of treatment, viable cell fraction, mean of at least three determinations, read-out: INA-6 EC50(±sdv). On the procedure: The effect of pharmacological Hsp70 inhibition on cell viability was analyzed after 72 hours of treatment in both non-malignant (mononuclear cells from the peripheral blood) and malignant lymphocytes (multiple myeloma cells). The mononuclear cells were separated from the peripheral blood of healthy donors by Ficoll-Hypaque density gradient centrifugation. The human cell line INA-6 represents a well-established model for multiple myeloma. The percentage of viable and apoptotic cell fractions was assessed using an annexin V-FITC/propidium iodide (PI) staining kit (Bender MedSystems, Vienna, Austria) according to manufacturer's instructions. In brief, cells were washed in PBS, incubated for 10 min in 100 ml binding buffer (10 mM HEPES/NaOH, pH 7.4, 140 mM NaCl, 2.5 mM CaCl2) containing 2.5 ml annexin V-FITC mix and 1 mg/ml propidium iodide (PI), subsequently diluted with 100 ml binding buffer and analyzed by flow cytometry (FACSCalibur/CELLQuest; Becton Dickinson, Heidelberg, Germany). Whereas viable cells are negative for both, annexin V-FITC and PI, early apoptotic cells show a positive annexin V-FITC staining, and cells in a late apoptotic stage which lose their membrane integrity additionally incorporate DNA-binding PI. To establish kill curves, concentrations of the tested compounds were titrated, and the measured viable cell fractions were further analyzed using the Prism Calculation Software (GraphPad Software Inc., La Jolla, USA).
In FIG. 2A Western blot analyses of caspases 9 and 3, and the caspase substrate PARP (upper panel), and viability analyses (lower panel) of INA-6 MM cells upon treatment with trans-7b for 24 hours are shown. INA-6 cells were either incubated with DMSO (as a solvent control) or with 0.6 μM of trans-7b, and additionally incubated either with DMSO or the pan-caspase inhibitor Z-VAD-FMK prior to analyses by Western or viability assessment (without Z-VAD-FMK co-treatment) by Annexin V/propidum iodide double staining. For Western analyses INA-6 cell pellets were dissolved in lysis buffer (20 mM HEPES (pH 7.9), 350 mM NaCl, 1 mM MgCl2, 0.5 mM EDTA, 0.1 mM EGTA, 1% NP40, 0.5 mM dithiothreiol (DTT), 1 mM Na3VO4, 0.1 mM PMSF and 1 μg/ml aprotinin). Lysates were cleared by centrifugation, measured by quantitative protein assay (Bio-Rad, München, Germany) and subjected to SDS gel electrophoresis. Proteins were transferred onto nitrocellulose membranes (Schleicher & Schuell, Dassel, Germany), incubated with antibodies specific for caspase 9, caspase 3 or PARP (Cell Signaling Technology, Frankfurt a.Main, Germany) according to standard procedures and visualized with secondary anti-rabbit horseradish peroxidase (HRP)-conjugated antibodies using an enhanced chemoluminescence detection system (ECL, Amersham, Freiburg, Germany). […] Annexin V/propidium iodide (PI) staining was performed using a fluorescein isothiocyanate (FITC) conjugated recombinant human annexin/propidium iodide kit (BenderMedSystems, Vienna, Austria) according to the manufacturer's instructions. INA-6 cells were washed in PBS, incubated for 15 minutes in 100 ml binding buffer (10 mM HEPES/NaOH, pH 7.4, 140 mM NaCl, 2.5 mM CaCl2) containing 2.5 mL annexin V-FITC mix and 1 mg/ml PI and analyzed by flow cytometry (FACSCalibur/CELLQuest; Becton Dickinson, Heidelberg, Germany). Whereas early apoptosis is characterized by positive annexin V-FITC staining reaction, cells in a late apoptotic stage lose their membrane integrity and additionally incorporate PI. Thus, the fraction of viable cells remains negative for both annexin V-FITC and PI. […] Based on the above described experiments also viability analyses of INA-6 in comparison with non-malignant PBMCs were performed choosing a longer incubation time (72 hours) as shown in FIG. 2B or C. Raw data of three independent experiments have been calculated to establish means, standard deviation and dose-effect curves of trans-7b.

The test system of another data set is caspases 9 and 3. Put plainly: Apoptosis assay: cleavage and activation of caspases 9 and 3, PARP cleavage in INA-6 cells (Western blot). The conditions noted are these: INA-6, Z-VAD-FMK 50 μM. Type of data set: cell-based, human. As to the method:
Apoptosis Assays. Hsp70-dependent prevention of apoptosis was investigated by analyses of the apoptosis-inducing factors (AIF) and of the caspases 9 and 3 in INA-6 cells. INA-6 cells were treated with 0.6 μM of compound trans-7b for 8 hours prior to analyze nuclear translocation of AIF. Staining of the nuclear protein lamin A was used as a loading control. […] Analysis of cleavage of the bona fide caspase substrate PARP served as a control for caspase activation. Co-treatment with the pan-caspase inhibitor Z-VAD-FMK (50 μM) was employed as another specificity control.
In FIG. 2A Western blot analyses of caspases 9 and 3, and the caspase substrate PARP (upper panel), and viability analyses (lower panel) of INA-6 MM cells upon treatment with trans-7b for 24 hours are shown. […] Lysates were cleared by centrifugation, measured by quantitative protein assay (Bio-Rad, München, Germany) and subjected to SDS gel electrophoresis. […] INA-6 cells were washed in PBS, incubated for 15 minutes in 100 ml binding buffer (10 mM HEPES/NaOH, pH 7.4, 140 mM NaCl, 2.5 mM CaCl2) containing 2.5 mL annexin V-FITC mix and 1 mg/ml PI and analyzed by flow cytometry (FACSCalibur/CELLQuest; Becton Dickinson, Heidelberg, Germany). […] Raw data of three independent experiments have been calculated to establish means, standard deviation and dose-effect curves of trans-7b.
On the technique in general: Immunoblotting shows a protein as a band on a membrane.

In general, pEC50 refers to −log10 of the EC50, conventionally taken in molar units. As a reminder, the melting point is the temperature of the solid-liquid transition.

pEC50: −log10 of the molar value. Read-outs that look alike come from different tables or passages of the source. Peptide text beside a SMILES is read from it. * marks the point of attachment. Cbz = O=C(OCc1ccccc1)*; CH2F = FC* Bounds are passed on as bounds.

In turn, `COc1ccc(C2C(C(=O)O)c3ccccc3C(=O)N2c2ccc(OC)cc2)cc1` (stereo not drawn) [trans-5d, trans-2,3-Bis(4-methoxyphenyl)-1-oxo-1,2,3,4-tetrahydroisoquinoline-4-carboxylic acid] showed a melting point of 201 to 203 °C. Also, the pEC50 with INA-6 was 5.00.

In the case of `COc1ccc(N2C(=O)c3ccccc3C(C(=O)O)C2c2ccccc2)cc1` (stereo not drawn) [cis-5c, cis-2-(4-Methoxyphenyl)-1-oxo-3-phenyl-1,2,3,4-tetrahydroisoquinoline-4-carboxylic acid], the melting point was in the range of 208 to 209 °C. Moreover, the negative logarithm of the EC50 (pEC50) with INA-6 (Homo sapiens, INA-6, 72 h) is under 4.00.

`COc1ccc(N2C(=O)c3ccccc3C(C(=O)O)C2c2ccccc2)cc1` (stereo not drawn) [trans-5c, trans-2-(4-Methoxyphenyl)-1-oxo-3-phenyl-1,2,3,4-tetrahydroisoquinoline-4-carboxylic acid]: the melting point fell in the range of 106 to 118 °C. Besides, in the data set on INA-6, the pEC50 is 4.24.

In the case of `COc1ccc(C2C(C(=O)O)c3ccccc3C(=O)N2c2ccc(OC)cc2)cc1` (stereo not drawn) [cis-5d, cis-2,3-Bis(4-methoxyphenyl)-1-oxo-1,2,3,4-tetrahydroisoquinoline-4-carboxylic acid], the melting point was 232 to 233 °C. In the data set with INA-6, the pEC50 is under 4.00.

`COc1ccc(C2C(C(=O)O)c3ccccc3C(=O)N2c2ccccc2)cc1` (stereo not drawn) [trans-5b, trans-3-(4-Methoxyphenyl)-1-oxo-2-phenyl-1,2,3,4-tetrahydroisoquinoline-4-carboxylic acid] registered a melting point of 171 to 173 °C. Further, the pEC50 with INA-6 (Homo sapiens, INA-6, 72 h) is 5.89.

Take `COC(=O)C[C@H](NC(=O)[C@H](C)NC(=O)[C@@H](NC(=O)OCc1ccccc1)C(C)C)C(=O)CF` [Z-VAD-FMK, reference compound] (Cbz-Val-Ala-Asp(OMe)-CH2F): the “trans-7b-induced induction of apoptosis under co-incubation” value in the data set on INA-6 (INA-6, Z-VAD-FMK 50 μM with trans-7b 0.6 μM) is reported as “largely prevented”. Also, in the data set on caspases 9 and 3, the “caspase activation and PARP cleavage under co-treatment with trans-7b” value is reported as “sufficiently inhibited”.

`O=C(O)C1c2ccccc2C(=O)N(c2ccccc2)C1c1ccccc1` (stereo not drawn) [trans-5a, trans-2,3-Diphenyl-1-oxo-1,2,3,4-tetrahydroisoquinoline-4-carboxylic acid] displayed a melting point of 226 to 229 °C. Also, in the data set on INA-6 (Homo sapiens, INA-6, 72 h), the pEC50 is 5.16.
